Results reported in patent publication US10238665B2, “Methods for treating fungal infections” (BRIGHAM YOUNG UNIVERSITY, priority 2014, dated 2019).
Converted amounts (≈) assume the structure as drawn. Read-outs that look alike come from different tables or passages of the source.

Tests used:
Candida albicans = experiment: MIC determination, broth microdilution (CLSI M27-A2); assay type: cell-based; conditions: 35° C., 24 hrs, 50% growth inhibition
Method: (§1) CSA 8 and CSA 13 were dissolved in dimethyl sulfoxide (DMSO) to create stock solutions. These solutions were applied to fungal isolates to determine the minimum inhibitory concentration (MIC) for each CSA.
(§2) An antifungal agent is serially diluted two-fold in a desired medium to produce ten concentrations of the antifungal under investigation. The range used is chosen to include achievable serum levels of the drug. A standardized inoculum of either yeast cells or conidia is diluted in an equal volume of the desired medium. The yeast or conidia inoculum is incubated in the serially diluted drug wells at 35° C. Two wells are used as controls. The negative control well has only media and serves as a sterility control. The positive control well has the standardized inoculum with no drug, and is used to compare with the amount of growth in the drug wells.
(§3) Testing is reported as an MIC, or minimum inhibitory concentration in μg/ml. This number represents the concentration at which the organism's growth in inhibited 50% from the control well for yeasts, and 80% for dermatophytes and certain filamentous fungi/antifungal combinations. Amphotericin B readings are taken at 100% inhibition.
(§4) Fungal cultures were prepared as follows: • 1. Grow Candida sp. on a potato dextrose agar plate for 24 hrs. at 35° C. Grow Cryptococcus sp. for 48 hrs. • 2. […]

[1] = tested on: C. albicans (fluconazole resistant); experiment: as above; assay type: cell-based, Candida albicans; conditions: 35° C., 24 hrs, 50% growth inhibition
Method: as §1, §2, §3, §4

C. parapsilosis = experiment: as above; assay type: cell-based, Candida parapsilosis; conditions: 35° C., 24 hrs, 50% growth inhibition
Method: as §1, §2, §3, §4

[2] = tested on: C. krusei (fluconazole resistant); experiment: as above; assay type: cell-based, Candida krusei; conditions: 35° C., 24 hrs, 50% growth inhibition
Method: as §1, §2, §3, §4

C. krusei = experiment: as above; assay type: cell-based, Candida krusei; conditions: 35° C., 24 hrs, 50% growth inhibition
Method: as §1, §2, §3, §4

[3] = tested on: C. galabrata (fluconazole resistant); experiment: as above; assay type: cell-based, Candida glabrata; conditions: 35° C., 24 hrs, 50% growth inhibition
Method: as §1, §2, §3, §4

Aspergillus fumigatus = experiment: MIC determination, broth microdilution (CLSI M38-A); assay type: cell-based; conditions: 35° C.
Method: as §1, §2, §3
(§5) Fungal cultures were prepared as follows: • 1. Grow Candida sp. on a potato dextrose agar plate for 24 hrs. at 35° C. Grow Cryptococcus sp. for 48 hrs. • 2. Pick 5 colonies >1 mm in diameter to 5 ml of 0.85% sterile saline in a sterile 15 ml conical tube and vortex. • 3. Count the cells using a hemacytometer • 4. Prepare a working suspension of yeast cells in RPMI-1640 to a final concentration of 2-5×10^3 CFU/ml (CFU=colony forming units or yeast cells) • 5. Prepare at least 2.5 ml of the working yeast suspension per drug per plate.
(§6) Plates were prepared as follows: • 1. Aseptically dispense RPMI-1640 into a 25 ml reservoir. • 2. Using a multichannel pipette with 8 tips, dispense 100 μl of RPMI-1640 into the wells of a 96 well round bottom plate in columns 11 and 12. These will serve as growth controls and sterility controls, respectively. • 3. Remove excess liquid from the reservoir. • 4. Add the lowest concentration of antifungal from the set of final concentrations to the reservoir, and using the same set of tips, dispense 100 μl into the wells of column 10. • 5. Repeat steps 4-5 for each final concentration, working from lowest to highest concentration into columns 9 through 1, until all columns are filled. • 6. Using a new set of pipette tips and a new reservoir, add 100 μl of inoculum to each well except […]. • 7. Run each organism in duplicate (i.e. add isolate one to rows 1 and 2, isolate two to rows 3 and four, etc.) • 8. Incubate the plates at 35° C. for 24 hrs. for Candida sp. and 72 hrs. for Cryptococcus sp. • Similar procedures are followed for Aspergillus sp., Trichophyton sp., and Microsporum sp.
(§7) Stock solutions of water-soluble and water insoluble antifungal agents were prepared according to standard laboratory procedures.
(§8) Antifungal susceptibility testing gives a numerical result expressed in μg/ml indicating an in vitro MIC, or minimum inhibitory concentration, of the drug being investigated. The Clinical and Laboratory Standards Institute (CLSI) has provided guidelines for standardized microdilution broth testing (CLSI M27-A2 for yeasts and CLSI M38-A for filamentous molds), which is followed in the above procedure. The CLSI has also published guidelines for interpretation of MIC results based on clinical correlation studies for yeasts.

Aspergillus niger = experiment: as above; assay type: cell-based; conditions: 35° C.
Method: as §1, §2, §3, §5, §6, §7, §8

Cladosporium sp. = experiment: as above; assay type: cell-based; conditions: 35° C.
Method: as §1, §2, §3, §5, §6, §7, §8

Microsporum canis = experiment: as above; assay type: cell-based; conditions: 35° C., 80% growth inhibition for dermatophytes
Method: as §1, §2, §3, §5, §6, §7, §8

Penicillium sp. = experiment: as above; assay type: cell-based; conditions: 35° C.
Method: as §1, §2, §3, §5, §6, §7, §8

Trichophyton rubrum = experiment: as above; assay type: cell-based; conditions: 35° C., 80% growth inhibition for dermatophytes
Method: as §1, §2, §3, §5, §6, §7, §8

[4] = tested on: T. rubrum (terbinafine resistant); experiment: as above; assay type: cell-based, Trichophyton rubrum; conditions: 35° C., 80% growth inhibition for dermatophytes
Method: as §1, §2, §3, §4

T. mentagrophytes = experiment: as above; assay type: cell-based, Trichophyton mentagrophytes; conditions: 35° C., 80% growth inhibition for dermatophytes
Method: as §1, §2, §3, §4

T. tonsurans = experiment: as above; assay type: cell-based, Trichophyton tonsurans; conditions: 35° C., 80% growth inhibition for dermatophytes
Method: as §1, §2, §3, §4

C. lusitaniae = experiment: Additional MIC experiments (CSA-13 and squalamine); assay type: cell-based, Candida lusitaniae
Method: as §2, §3
(§9) Fungal cultures were prepared as follows: • 1. Grow Candida sp. on a potato dextrose agar plate for 24 hrs. at 35° C. Grow Cryptococcus sp. for 48 hrs. • 2. Pick 5 colonies >1 mm in diameter to 5 ml of 0.85% sterile saline in a sterile 15 ml conical tube and vortex. • 3. Count the cells using a hemacytometer • 4. […]

C. glabrata = experiment: Additional MIC experiments (CSA-13 and squalamine); assay type: cell-based, Candida glabrata
Method: as §2, §3, §9

C. tropicalis = experiment: Additional MIC experiments (CSA-13 and squalamine); assay type: cell-based, Candida tropicalis
Method: as §2, §3, §9

Cryptococcus neofermans = experiment: Additional MIC experiments (CSA-13 and squalamine); assay type: cell-based, Cryptococcus neoformans
Method: as §2, §3, §9

C. guilliermondii = experiment: Additional MIC experiments (CSA-13 and squalamine); assay type: cell-based, Candida guilliermondii
Method: as §2, §3, §9

[5] = tested on: 100 Candida auris isolates; experiment: Antifungal effectiveness against Candida auris, MIC by CLSI M27-A3; assay type: cell-based
Method: The antifungal effectiveness of CSA-131 was tested against 100 Candida auris isolates. The C. auris isolates were form all over the world and covered know C. auris clades. The selection included isolated known to have elevated MIC values against fluconazole, the echinocandins, and/or amphotericin B.
Testing was performed according to the standards of the Clinical and Laboratory Standards Institute reference methodology M27-A3 (as of 2017). CSA-131 was dissolved in DMSO and diluted as described in M27-A3 to give a final DMSO concentration of <1%. Dilution plates were stored at −70° C. until used and were used within one week of being produced. All results were read visually after 24 hours of incubation at the lowest drug concentration at which there was a 50% decrease in growth by visual inspection. Quality control isolates C. parapsilosis ATCC22019 and C. krusei ATCC6258 were included on each day of testing although there are no standard QC values for these isolates against this compound. The MIC values for ATCC22019 and ATCC6258 remained within a tight range of 1-2 dilutions over the course of the study.

[6] = C. auris isolates with elevated echinocandin MICs, 7 isolates

SMILES: CCCCCCCCNCCC[C@@H](C)[C@H]1CC[C@H]2[C@@H]3[C@H](OCCCN)C[C@@H]4C[C@H](OCCCN)CC[C@]4(C)[C@H]3C[C@H](OCCCN)[C@]12C [CSA 13]
- MIC (Candida albicans): 2 µg/mL
- MIC [1]: 2 µg/mL
- MIC (C. parapsilosis): 2 µg/mL
- MIC [2]: 1 µg/mL
- MIC (C. krusei): 2 µg/mL
- MIC [3]: 2 µg/mL
- MIC (Aspergillus fumigatus): 8 µg/mL
- MIC (Aspergillus niger): 2 µg/mL
- MIC (Cladosporium sp.): 0.5 µg/mL
- MIC (Microsporum canis): 2 µg/mL
- MIC (Penicillium sp.): 0.5 µg/mL
- MIC (Trichophyton rubrum): 4 µg/mL
- MIC [4]: 4 µg/mL
- MIC (T. mentagrophytes): 2 µg/mL
- MIC (T. tonsurans): 2 µg/mL
- MIC (C. lusitaniae; C. lusitaniae): 0.5 µg/mL
- MIC (C. glabrata; C. glabrata): 0.5 µg/mL
- MIC (C. tropicalis; C. tropicalis): 0.5 µg/mL
- MIC (Cryptococcus neofermans; Cryptococcus neofermans): 0.5 µg/mL
- MIC (C. guilliermondii; C. guilliermondii): 0.5 µg/mL

SMILES: CCCCCCCCCCCCNCCC[C@@H](C)[C@H]1CC[C@H]2[C@@H]3[C@H](OCCCN)C[C@@H]4C[C@H](OCCCN)CC[C@]4(C)[C@H]3C[C@H](OCCCN)[C@]12C [CSA-131]
- MIC Range ([5]; 100 C. auris isolates, 24 hours, 50% decrease in growth): 0.5 to 1 µg/mL
- MIC Range ([5]; C. auris Clade 1, 47 isolates): 0.5 to 1 µg/mL
- MIC90 ([5]; C. auris Clade 2, 11 isolates): 1 µg/mL (≈ 1.36 µM)
- MIC Range ([5]; C. auris Clade 2, 11 isolates): 0.5 to 1 µg/mL
- MIC90 ([5]; C. auris Clade 3, 39 isolates): 1 µg/mL (≈ 1.36 µM)
- MIC Range ([5]; C. auris Clade 3, 39 isolates): 0.5 to 1 µg/mL
- MIC90 ([5]; C. auris Clade 4, 3 isolates): 1 µg/mL (≈ 1.36 µM)
- MIC Range ([5]; C. auris Clade 4, 3 isolates): 0.5 to 1 µg/mL
- MIC90 [5, 6]: 1 µg/mL (≈ 1.36 µM)
- MIC Range [5, 6]: 0.5 to 1 µg/mL
- MIC50 ([5]; Candidozyma auris, 24 h, 100 C. auris isolates, 24 hours, 50% decrease in growth, read-out: MIC50): 1 µg/mL (≈ 1.36 µM)
- MIC ([5]; Candidozyma auris, 24 h, 100 C. auris isolates, 24 hours, 50% decrease in growth, read-out: MIC Mode): 1 µg/mL (≈ 1.36 µM)
- MIC50 ([5]; Candidozyma auris, C. auris Clade 1, 47 isolates, read-out: MIC50): 1 µg/mL (≈ 1.36 µM)
- MIC90 ([5]; Candidozyma auris, C. auris Clade 1, 47 isolates, read-out: MIC90): 1 µg/mL (≈ 1.36 µM)
- MIC ([5]; Candidozyma auris, C. auris Clade 1, 47 isolates, read-out: MIC Mode): 1 µg/mL (≈ 1.36 µM)
- MIC50 ([5]; Candidozyma auris, C. auris Clade 2, 11 isolates, read-out: MIC50): 1 µg/mL (≈ 1.36 µM)
- MIC ([5]; Candidozyma auris, C. auris Clade 2, 11 isolates, read-out: MIC Mode): 1 µg/mL (≈ 1.36 µM)
- MIC50 ([5]; Candidozyma auris, C. auris Clade 3, 39 isolates, read-out: MIC50): 1 µg/mL (≈ 1.36 µM)
- MIC ([5]; Candidozyma auris, C. auris Clade 3, 39 isolates, read-out: MIC Mode): 1 µg/mL (≈ 1.36 µM)
- MIC50 ([5]; Candidozyma auris, C. auris Clade 4, 3 isolates, read-out: MIC50): 0.5 µg/mL (≈ 0.682 µM)
- MIC ([5]; Candidozyma auris, C. auris Clade 4, 3 isolates, read-out: MIC Mode): 0.5 µg/mL (≈ 0.682 µM)
- MIC50 ([5]; Candidozyma auris, C. auris isolates with elevated echinocandin MICs, 7 isolates, read-out: MIC50): 1 µg/mL (≈ 1.36 µM)
- MIC ([5]; Candidozyma auris, C. auris isolates with elevated echinocandin MICs, 7 isolates, read-out: MIC Mode): 1 µg/mL (≈ 1.36 µM)
- MIC50 ([5]; Candidozyma auris, fluconazole Resistant C. auris isolates, 69 isolates): 1 µg/mL (≈ 1.36 µM)
- MIC50 ([5]; Candidozyma auris, fluconazole Susceptible C. auris isolates, 30 isolates): 0.5 µg/mL (≈ 0.682 µM)
- MIC ([5]; Candidozyma auris, read-out: MIC Mode, fluconazole Resistant C. auris isolates, 69 isolates): 1 µg/mL (≈ 1.36 µM)
- MIC90 ([5]; Candidozyma auris, 100 C. auris isolates, 24 hours, 50% decrease in growth, read-out: MIC90): 1 µg/mL (≈ 1.36 µM)
- activity against C. auris (in words) ([5]; collection of 100 C. auris isolates, 4 clades): showed activity against all C. auris among this collection
- MIC90 ([5]; {}): 1 µg/mL (≈ 1.36 µM)
- MIC Range ([5]; {}): 0.5 to 1 µg/mL

SMILES: CC(C)[C@@H](CC[C@@H](C)[C@H]1CC[C@H]2[C@@H]3[C@H](O)C[C@H]4C[C@@H](NCCCNCCCCN)CC[C@]4(C)[C@H]3CC[C@]12C)OS(=O)(=O)O [Squalamine, squalamine, reference compound]
- MIC (C. lusitaniae; Clavispora lusitaniae): 4 µg/mL
- MIC (C. glabrata; Nakaseomyces glabratus): 2 µg/mL
- MIC (C. tropicalis; Candida tropicalis): 4 µg/mL
- MIC (Cryptococcus neofermans; Cryptococcus): 4 µg/mL
- MIC (C. guilliermondii; Meyerozyma guilliermondii): 4 µg/mL
